Numbers after ± are expanded uncertainties.
Test: molar heat capacity at constant pressure
Details: 101.33 kPa, relaxation calorimetry - Quantum Design PPMS

O=P([O-])([O-])OP(=O)([O-])[O-].O=P([O-])([O-])OP(=O)([O-])[O-].O=P([O-])([O-])OP(=O)([O-])[O-].[Fe+3].[Fe+3].[Fe+3].[Fe+3] [iron(III) diphosphate]
molar heat capacity at constant pressure [J/K/mol]
Details | Crystal 1 | Crystal 2
45.43 K | – | 122.94 ± 2.5
45.64 K | – | 124.36 ± 2.5
45.84 K | – | 125.76 ± 2.5
46.02 K | – | 126.95 ± 2.5
46.22 K | – | 128.47 ± 2.6
46.44 K | – | 130.17 ± 2.6
46.64 K | – | 131.93 ± 2.6
46.84 K | – | 133.84 ± 2.7
47.05 K | – | 135.68 ± 2.7
47.24 K | – | 137.48 ± 2.8
47.38 K | – | 138.74 ± 2.8
47.44 K | – | 139.11 ± 2.8
47.58 K | – | 139.19 ± 2.8
47.6 K | 139.19 ± 3.4 | 139.19 ± 3.3
47.65 K | 138.86 ± 2.9 | –
47.77 K | 136.97 ± 2.8 | –
47.84 K | 134.84 ± 2.8 | –
47.97 K | 130.03 ± 2.7 | –
48.05 K | 126.52 ± 2.6 | –
48.16 K | 121.47 ± 2.5 | –
48.26 K | 116.89 ± 2.4 | –
48.36 K | 112.95 ± 2.3 | –
48.42 K | 110.73 ± 2.3 | –
48.55 K | 107.38 ± 2.2 | –
48.66 K | 105.62 ± 2.2 | –
48.76 K | 103.95 ± 2.1 | –
48.97 K | 102.08 ± 2.1 | –
49.16 K | 101.07 ± 2 | –
49.25 K | 100.78 ± 2 | –
49.37 K | 100.37 ± 2 | –
49.56 K | 99.82 ± 2 | –
49.74 K | 99.5 ± 2 | –
49.76 K | 99.49 ± 2 | –
49.97 K | 99.12 ± 2 | –
50 K | 99.09 ± 2.2 | –
50.16 K | 98.85 ± 2 | –
50.24 K | 98.89 ± 2 | –
50.37 K | 98.71 ± 2 | –
50.75 K | 98.49 ± 2 | –
51.26 K | 98.47 ± 2 | –
51.78 K | 98.62 ± 2 | –
52.26 K | 99.14 ± 2 | –
52.77 K | 99.39 ± 2 | –
53.27 K | 99.87 ± 2 | –
53.79 K | 100.51 ± 2 | –
53.8 K | 100.65 ± 2 | –
54.3 K | 101.12 ± 2 | –
54.8 K | 101.89 ± 2 | –
55 K | 102.2 ± 2.2 | –
55.3 K | 102.66 ± 2 | –
55.82 K | 103.45 ± 2.1 | –
56.32 K | 104.29 ± 2.1 | –
56.83 K | 105.21 ± 2.1 | –
57.33 K | 106.12 ± 2.1 | –
57.82 K | 106.98 ± 2.1 | –
58.35 K | 107.99 ± 2.2 | –
58.86 K | 109.04 ± 2.2 | –
59.33 K | 110.07 ± 2.2 | –
59.86 K | 111.09 ± 2.2 | –
60 K | 111.36 ± 2.5 | –
60.37 K | 112.09 ± 2.2 | –
61.22 K | 114 ± 2.3 | –
62.42 K | 116.32 ± 2.3 | –
63.41 K | 118.45 ± 2.4 | –
64.42 K | 120.61 ± 2.4 | –
65 K | 121.89 ± 2.7 | –
65.42 K | 122.92 ± 2.5 | –
66.42 K | 124.93 ± 2.5 | –
67.44 K | 127.27 ± 2.5 | –
68.45 K | 129.47 ± 2.6 | –
69.47 K | 131.89 ± 2.6 | –
70 K | 133.03 ± 2.9 | –
70.48 K | 134.15 ± 2.7 | –
71.49 K | 136.51 ± 2.7 | –
72.5 K | 138.68 ± 2.8 | –
73.5 K | 141.06 ± 2.8 | –
73.58 K | 141.14 ± 2.8 | –
74.51 K | 143.36 ± 2.9 | –
75 K | 144.64 ± 3.2 | –
75.53 K | 145.73 ± 2.9 | –
76.55 K | 148.3 ± 3 | –
77.56 K | 150.74 ± 3 | –
78.57 K | 153.39 ± 3.1 | –
79.58 K | 155.6 ± 3.1 | –
80 K | 156.55 ± 3.4 | –
80.59 K | 158.26 ± 3.2 | –
81.7 K | 160.54 ± 3.2 | –
85 K | 168.61 ± 3.7 | –
90 K | 180.67 ± 4 | –
90.71 K | 182.62 ± 3.6 | –
95 K | 193.23 ± 4.2 | –
100 K | 205.34 ± 4.5 | –
100.7 K | 205.22 ± 4.1 | –
110 K | 227.92 ± 5 | –
110.85 K | 227.84 ± 4.6 | –
120 K | 248.76 ± 5.5 | –
120.85 K | 248.93 ± 5 | –
130 K | 268.26 ± 5.9 | –
130.93 K | 269.49 ± 5.4 | –
140 K | 286.79 ± 6.3 | –
141.05 K | 288.92 ± 5.8 | –
150 K | 304.56 ± 6.7 | –
151.1 K | 307 ± 6.1 | –
160 K | 321.72 ± 7.1 | –
161.21 K | 324.93 ± 6.5 | –
170 K | 338.34 ± 7.4 | –
171.22 K | 342.32 ± 6.8 | –
180 K | 354.45 ± 7.8 | –
181.32 K | 357.51 ± 7.2 | –
190 K | 370.05 ± 8.1 | –
191.45 K | 374.2 ± 7.5 | –
200 K | 385.13 ± 8.5 | –
201.57 K | 387.79 ± 7.8 | –
210 K | 399.67 ± 8.8 | –
211.7 K | 401.38 ± 8 | –
220 K | 413.65 ± 9.1 | –
221.82 K | 416.43 ± 8.3 | –
230 K | 427.07 ± 9.4 | –
231.97 K | 429 ± 8.6 | –
240 K | 439.91 ± 9.7 | –
242.05 K | 440.09 ± 8.8 | –
250 K | 452.18 ± 9.9 | –
252.07 K | 452.65 ± 9.1 | –
260 K | 463.87 ± 10 | –
262.14 K | 465.23 ± 9.3 | –
270 K | 475 ± 10 | –
272.29 K | 475.97 ± 9.5 | –
273.15 K | 478.39 ± 11 | –
280 K | 485.58 ± 11 | –
282.37 K | 488.57 ± 9.8 | –
290 K | 495.63 ± 11 | –
292.36 K | 498.4 ± 10 | –
298.15 K | 503.44 ± 11 | –
300 K | 505.16 ± 11 | –
302.55 K | 510.46 ± 10 | –
